Patent US11969402B2, “Compositions and methods for skin rejuvenation” (THE JOHNS HOPKINS UNIVERSITY, priority 2019, dated 2024)

What was measured:
[1] = test system: human scalp keratinocytes; test: Retinoid levels (RA by LC-MS/MS, ROL and RE by HPLC-UV) in keratinocytes; assay type: cell-based; details: human scalp keratinocytes, rhIL6 0, 10, 50, 100 ng per ml, 2 days
Description: Small interference RNA (siRNA) transfection. Human ALDH1A2 (Santa Cruz Biotechnology, sc41443), ALDH1A3 (Santa Cruz Biotechnology, sc43611), TLR3 (Dharmacon, M-007745-00), TRIF (Santa Cruz Biotechnology, sc106845), IRF3 (Santa Cruz Biotechnology, sc35710), NF-κB (Santa Cruz Biotechnology, sc29410) and non-targeting control (scramble) siRNAs (Santa Cruz Biotechnology, sc37007 & Dharmacon, D-001210) were commercially provided. Human scalp keratinocytes (3×10^5 cells per well) in 12-well plates were transfected with 20 nM of siRNAs using Lipofectamine® RNAiMAX (Thermo Fisher Scientific, #13778150) following the manufacturer's directions. Poly (I:C) (0.1 μg per ml) was applied to transfected cells and incubated for 48 hrs. At the end of transfection period, cells were harvested to isolate protein to perform qRT-PCR, western blot, and RA mass spectrometry.
IL6 treatment. Recombinant human interleukin 6 (rhIL6) (R&D system; 206-IL-010) was treated into human scalp keratinocytes with dose-dependent manners (0, 10, 50, and 100 ng per ml) for 2 days. Cells were harvested and lysates were used for RA measurement.
Determination of Retinoid Levels. For in vitro samples, human scalp keratinocytes were incubated with 0.5 μg per ml of Poly (I:C) for 48 hrs or siRNAs-transfected cells were incubated with 0.1 μg per ml of Poly (I:C) for 48 hrs. For in vivo samples, skin was analyzed from wild-type and Tlr3^−/− unwounded and wounded skin where wound regions (center and edge area) were cut by scalpel. Human skin was analyzed for retinoids with and without CO2 laser treatment as described. All samples were frozen at collection and stored at −80° C. until extraction. For in vitro experiments, media and cell pellets were analyzed separately. For in vivo experiments, tissues were homogenized in saline. Extraction of retinoids was performed under yellow lights using a two-step liquid-liquid extraction that has been described in detail previously using 4,4-dimethyl-RA as an internal standard for RA and retinyl acetate as an internal standard for retinol and total retinyl ester^43-46. For the extraction of retinoids, 1 to 3 ml of 0.025 M KOH in ethanol was added to tissue homogenates (in vivo) or cell culture (in vitro) samples. Then 10 ml hexane (for in vivo tissue sample) or 5 ml hexane (for in vitro cell culture sample) was added to the aqueous ethanol phase. The samples were vortexed and centrifuged for 1 to 3 min at 1000 rpm in a Dynac centrifuge (Becton Dickinson) to facilitate phase separation and pellet precipitated protein. The hexane (top) phase containing nonpolar retinoids (ROL and RE) was removed. 4 M HCl (60-180 μl) was added to the remaining aqueous ethanol phase, samples were vortexed, and then polar retinoids (RA) were removed by extraction with a second 5-10 ml aliquot of hexane as described above. […]
Levels of RA were determined by liquid chromatography-multistage tandem mass spectrometry (LC-MRM^3) which is an LC-MS/MS method utilizing two distinct fragmentation events for enhanced selectivity^43. RA was measured using a Shimadzu Prominence UFLC XR liquid chromatography system (Shimadzu, Columbia, MD) coupled to an AB Sciex 5500 or 6500+ QTRAP hybrid triple quadrupole mass spectrometer (AB Sciex, Framingham, MA) using atmospheric pressure chemical ionization (APCI) operated in positive ion mode as previously described^43. […]

[2] = test system: Wound Induced Hair Neogenesis (WIHN); test: Wound Induced Hair Neogenesis (WIHN), regenerated hair follicles counted by CSLM; assay type: in vivo, mouse; details: WT mice, topical 0.1 μg per mouse on WD1, with or without Poly (I:C)
Method: (§1) Wound Induced Hair Neogenesis (WIHN). All experiments were followed with the present inventors' WIHN protocol^1,9. Briefly, hair was shaved and a 1.2 cm^2 full-thickness skin on the backs of 21-day old (telogen) male and female mice was removed by sterile scissors. A single treatment of RA (30 μl) (0.1 μg per mouse) (Millipore Sigma, R2625) and BMS493 (30 μl) (0.1 μg per mouse) (Cayman Chemical, #17418) was applied topically onto open wound on WD1 of Tlr3^−/− and WT mice, respectively. Poly (I:C) (50 μl) (5 μg per mouse) (Invivogen, tlrl-pic) was injected under the healed scab on WD3 of WT mice as described before^9,34. On WD20-24, numbers of regenerated hair follicles were visualized and quantified in the re-epithelialized skin by non-invasive confocal scanning laser microscopy (CSLM) (Caliber I.D., VIVASCOPE 1500) as published^1,9. As a vehicle (Control), ethanol (EtOH), dimethylsulfoxide (DMSO), or PBS was treated for RA, BMS493, and Poly (I:C), respectively.

[3] = test system: keratinocytes of Tlr3−/− mice; test: Western blot of stem cell markers in keratinocytes of Tlr3-/- mice; assay type: cell-based, mouse; details: keratinocytes of Tlr3−/− mice, BMS493 1 μM pre-treated
Method: Adult keratinocytes isolation and cultures. For human keratinocytes, 3-mm skin biopsies were taken from areas of the occipital scalp through above IRB protocols using enzyme digestion method as described in the literature^30,31. For mouse keratinocytes, tails of adult mice were used and followed by the same protocol of human keratinocytes. Briefly, the skin fragments were incubated in 0.4% dispase II solution overnight at 4° C., allowing separation of epidermis from dermis. Then epidermis was incubated with 0.25% trypsin-EDTA (Lonza, Walkersville, MD) to isolate keratinocytes for 5 min at 37° C. Adult keratinocytes were maintained in KGM including defined growth factors (KGM-GOLD Bullet kit, #192060) (Lonza) and supplemented with 10 μM of ROCK inhibitor (Y-27632) (Cayman Chemical, #10005583) until use^32. For all in vitro experiments, primary keratinocytes were passaged at least once to eliminate contaminating other cells isolated from epidermis and used at passage 2-4 for human and passage 1-2 for mouse keratinocytes.
(§2) BMS493 treatment. BMS493 pan-RARs antagonist (1 μM) was pre-treated into keratinocytes for an hour and cells were incubated with RA (0.1 μM and 0.5 μM for human and mouse keratinocytes, respectively) or Poly (I:C) (0.1 μg per ml for both human and mouse keratinocytes) for 48 hrs. At the end of the experiment, cells were harvested for RNA and protein extraction to do further analysis including qRT-PCR and western blot.
Western blot analysis. Human and mouse keratinocytes were disrupted in M-PER lysis buffer (Thermo Fisher Scientific, #78501) containing protease inhibitors (Thermo Fisher Scientific, #87786) using ultrasonic homogenizer (20% power with 5 times every 2 seconds) to extract proteins. Then, protein concentrations were determined by BCA method (Thermo Fisher Scientific, #23225). Western blot procedures were followed by the protocol of NuPAGE system (Thermo Fisher Scientific). […] The signal intensity of protein was quantified using Image Lab software (Bio-Rad). […]

[4] = test system: human scalp keratinocytes; test: Western blot / immunostaining of ALDH1A3, KRT15, KRT19 in human keratinocytes; assay type: cell-based; details: human keratinocytes
Method: as §2
Western blot analysis. Human and mouse keratinocytes were disrupted in M-PER lysis buffer (Thermo Fisher Scientific, #78501) containing protease inhibitors (Thermo Fisher Scientific, #87786) using ultrasonic homogenizer (20% power with 5 times every 2 seconds) to extract proteins. Then, protein concentrations were determined by BCA method (Thermo Fisher Scientific, #23225). Western blot procedures were followed by the protocol of NuPAGE system (Thermo Fisher Scientific). Briefly, 20 μg of protein samples were loaded for electrophoresis and transferred to polyvinylidene di-fluoride (PVDF) membrane (Bio-Rad, Hercules, CA). After blocking for at least an hour in 5% non-fat dry milk, the membrane was incubated with primary antibodies with appropriate dilutions (Table 2) at 4° C. overnight and followed by incubation with secondary antibodies for 1 hour at room temperature. Protein amounts were normalized to rabbit polyclonal anti-human β-actin antibody (1:1,000 dilution) (Cell Signaling Technology). Finally, proteins were visualized using SuperSignal West Pico PLUS chemiluminescent substrate kit (Thermo Fisher Scientific, #34577) and saved as image files using ChemiDoc XRS^+ (Bio-Rad). The signal intensity of protein was quantified using Image Lab software (Bio-Rad). Original images of representative blots were provided in the Source data file.
Immunofluorescence. For tissues, frozen-sections of mouse skin samples were stained with primary antibodies with appropriate dilution at 4° C. overnight, followed by incubation with goat anti-rabbit IgG labeled with Alexa Flour® 488 (Life Technologies) and 594 (Life Technologies) for 1 hour at room temperature. For cells, keratinocytes (3×10^5 cells) plated on cover-slip were fixed with 4% Paraformaldehyde (PFA) for 10 min, permeabilized in PBS including 0.5% Triton X-100 for 15 min at room temperature. After washing with PBS 3 times, cells were stained with primary antibodies overnight at 4° C., followed by incubation with goat anti-rabbit or mouse IgG labeled with Alexa Flour® 488 for 1 hour at room temperature. Cell nuclei were visualized by mounting medium including DAPI (Vector Laboratories, Burlingame, CA, H-1200). Fluorescence images were observed by fluorescence microscopy (Leica microsystems), taken pictures with ×100 (low magnification) and ×200 (high magnification), and saved as image files.

wound beds = test: Immunostaining of healing wounds; assay type: in vivo, mouse; details: WT mice
Method: as §1
Immunofluorescence. […] Fluorescence images were observed by fluorescence microscopy (Leica microsystems), taken pictures with ×100 (low magnification) and ×200 (high magnification), and saved as image files.

IL-6: Recombinant human interleukin 6 (R&D system; 206-IL-010)
RA accumulation [1]: sufficient to substantially stimulate RA accumulation

CC1(C)CC=C(C#Cc2ccccc2)c2cc(/C=C/c3ccc(C(=O)O)cc3)ccc21 [BMS493]
WIHN [2]: almost completely ablated
RA-induced Krt15 and Krt19 expression [3]: substantially inhibits expression
RA-induced active β-catenin (ABC) expression [3]: inhibits induction
RA and Poly (I:C)-induced KRT15 and KRT19 expression ([4]; BMS493 1 μM pre-treated): substantially inhibited
Wnt7b and Krt15 protein expression in wound beds prior to regeneration (wound beds): decreased

CCN(CC)c1ccc(C=O)cc1 [DEAB, N,N-diethylaminobenzaldehyde]
Poly (I:C) induction of ALDH1A3, KRT15 and KRT19 protein ([4]; broad ALDH chemical inhibition): disrupted
